Laboratory results: patent US11179471B2, “Peptide for cytosolic delivery” (priority 2017, dated 2021)
Entries after “also recorded” stand apart in the source; their conditions may differ. Like-named read-outs stand apart in the source and are kept apart here. Non-standard residues stand in square brackets, D forms with d. No end group written: not given here. hArg = N=C(N)NCCCC[C@H](N)C(=O)O; Aad = N[C@@H](CCCC(=O)O)C(=O)O

Tests used:
[1] = system: mitochondrial membrane of HeLa cells
Excerpt: Mitochondrial membranes are considered to be rich in acidic lipid, as compared with cell membranes. Accordingly, the effects of the above peptides on a mitochondrial membrane were examined by JC-1 assay. A JC-1 reagent emits red (J-aggregate) fluorescence when the mitochondrial membrane is kept normal and the membrane potential is maintained; and the JC-1 reagent emits green (J-monomer) fluorescence when the mitochondrial membrane is damaged and the membrane potential is not kept normal. After HeLa cells were incubated with HAad, HA/E2, or L17E (40 μM) in α-MEM(−) for 1 hour, JC-1 assay was performed. The percentage of cells that emitted red fluorescence was assayed by flow cytometry.

HeLa cells [2] = assay: Intracellular release of Alexa 488-labeled human immunoglobulin (IgG, circa 160 kDa); format: cell-based; details: for cells in which intracellular release of human immunoglobulin was observed: α-MEM(−) 1 hour
Description: The cells and human immunoglobulin fluorescently labeled with Alexa 488 (IgG, circa 160 kDa) (500 μg/mL) were incubated in the presence of HAad, HA/E2, or L17E (40 μM each) in α-MEM(−) medium for 1 hour in the same manner as in Example 6.
The cells and human immunoglobulin fluorescently labeled with Alexa 488 (IgG, circa 160 kDa) (50 μg/mL: 1/10 the volume of Example 8) were incubated in the presence of HAad or L17E (40 μM each) in α-MEM(−) medium for 1 hour.
In the presence of HAad or L17E (20 μM each: ½ the amount used in Examples 8 and 9), the cells and human immunoglobulin fluorescently labeled with Alexa 488 (IgG, circa 160 kDa) (500 μg/mL: the same amount as in Example 8) were incubated in α-MEM(−) medium for 1 hour. […] (In FIG. 9, the intracellular release achieved by treatment with a low concentration of HAad was 2.5 times the release achieved by L17E. With respect to the peptide concentration required to detect the signal of intracellularly released human immunoglobulin in 35% of the cells, the concentration of L17E is 40 μM, and the concentration of HAad is 20 μM, which is half the concentration of L17E.)

[3] = system: HeLa cells transfected with a plasmid encoding loxP-DsRed-loxP-EGFP; assay: Genetic recombination assay by intracellular delivery of Cre protein (EGFP expression); format: cell-based; details: for proportion of GFP-expressing cells: Cre-His6 10 μM, peptide 40 μM, 1 hour, then 24 hours in α-MEM(+); for increase of genetic recombination as compared with no peptide administration: EGFP expression with no release peptide was 9%
Description: HeLa cells transfected with a plasmid encoding loxP-DsRed-loxP-EGFP, which were prepared in the same manner as in the Examples of PTL 2, were incubated with His-tag fusion Cre (Cre-Hiss) (10 μM) in the presence of HAad, HA/E2, or L17E (40 μM each) for 1 hour. This system was designed to express EGFP when intracellular release of Cre protein induces genetic recombination. […] The proportions of GFP-expressing cells in the cells treated with HAad, HA/E2, and L17E were 41%, 36%, and 30%, respectively. Considering the fact that the EGFP expression efficiency achieved with no administration of a release peptide was 9%, peptide administration of HAad, HA/E2, and L17E can be considered to increase genetic recombination by 32%, 27%, and […], respectively, as compared with no peptide administration.

NIH3T3 cells = assay: Intracellular release of dextran (10 kDa) in NIH3T3 cells; format: cell-based; details: peptide 40 μM, dextran (10 kDa), DEME(−) medium 1 hour
Description: Intracellular release of dextran is more difficult in NIH3T3 cells than in HeLa cells. NIH3T3 cells and dextran (10 kDa) were incubated in the presence of HAad, HA/E2, or L17E (40 μM each) in DEME(−) medium for 1 hour in the same manner as in Example 6.

HeLa cells [4] = assay: Release of Alexa 488-dextran (10 kDa) into the cytoplasm, confocal microscopy; format: cell-based
Description: Cells; HeLa, peptides; 40 μM, Alexa 488-dextran (10 kDa); 200 μg/mL, treatment; 1 hr in α-MEM(−).
Cells; HeLa, peptides; 40 μM, Alexa 488-dextran (10 kDa); 200 μg/mL, treatment; 1 hr in α-MEM(−). The results are presented as means ±SE (n=3). **; p<0.01 (Student's t-test).
Cells; HeLa, peptides; 40 μM, Alexa 488-dextran (10 kDa); 200 μg/mL, treatment; 1 hr in α-MEM(−). Results are presented as means±SE (n=3). *; p<0.05, **; p<0.01, ***; p<0.001 (one-way ANOVA followed by the Tukey-Kramer honestly significant difference test (post-hoc test)).
(§1) In the presence of each peptide obtained in Example 1 (L17E, L17E/Q21E, HA/E1, HA/E2) (40 μM) or in the absence of the peptides (a control, no peptide), HeLa cells and Alexa 488-dextran (Molecular Probes, 10 kDa) (200 μg/mL) were treated in α-MEM(−) for 1 hour. The cells were washed, and observed with a confocal microscope.
as §1, with “L17Aad)” for “L17E/Q21E, HA/E1, HA/E2)”
as §1, with “(HAad, HA/E2, L17Aad, L17E)” for “(L17E, L17E/Q21E, HA/E1, HA/E2)”
When HeLa cells were incubated with Alexa 488-dextran (10 kDa) (200 μg/mL) as a macromolecular drug model in the presence of HAad (40 μM) in α-MEM(−) for 1 hour, Alexa 488-dextran release into about 75% of cells (cytosol) was observed. In contrast, when the incubation was performed in the presence of L17E, Alexa 488-dextran release into about 50% of the cells was observed.
HeLa cells, Alexa 488-dextran (Molecular Probes, 10 kDa) (200 μg/mL), and HAad; or HeLa cells, Alexa 488-dextran, (Molecular Probes, 10 kDa) (200 μg/mL), and HAad-homoR (20 μM) were treated in α-MEM(−) for 1 hour. The cells were washed, and observed with a confocal microscope.

[5] = Helix content from CD spectra in the presence of POPC/POPG (3:1) liposomes; format: physicochemical; details: result in words (FIG. 1)
Description: The helix content was calculated by the method of Y. H. Chen et al., 1972, based on 222-nm molar ellipticity ([…]) using the following formula: Helicity (%)=−([θ]222+2340)/30300*100.
The helix content of the peptides obtained in Example 1 (L17E, L17E/Q21E, L17Aad, HA/E1, HA/E2, and HAad) was calculated in the presence of POPC/POPG (3:1) liposomes by the method of Y. H. Chen et al., 1972, based on 222-nm molar ellipticity ([θ]222) using the following formula: Helix content (%)=−([θ]222+2340)/30300*100. Further, the CD spectra of the peptides were measured.

[6] = Cell viability 24 hours after peptide treatment in the presence of serum (WST-8); format: cell-based; details: cells (cell line not given); peptide 10 μM, 20 μM and 40 μM; α-MEM(+) 24 hours; WST-8
Description: (§2) After the cells were incubated in the presence of HAad, HA/E2, or L17E (each 10 μM, 20 μM, and 40 μM) in α-MEM(+) medium for 24 hours, the cell viability (%) was evaluated by WST-8 assay (FIG. 14). The cell viability (%) after 24 hours with the use of any peptide at any concentration was almost 100%.

cells = assay: as above; format: cell-based; details: 10-40 μM; α-MEM(+) 24 hours
Description: as §2

HeLa cells [7] = assay: Release of Alexa 488-dextran (10 kDa) into the cytoplasm, confocal microscopy; format: cell-based; details: Alexa 488-dextran (10 kDa) 200 μg/mL, 1 hour, read-out: peptide concentration required to detect the signal of intracellularly released Alexa 488-dextran in 50% of the cells
HeLa cells [8] = assay: Nuclear accumulation of NLS-EGFP; format: cell-based; details: NLS-EGFP 10 μM; peptide 40 μM; α-MEM(−) 1 hour
Description: The cells and NLS-EGFP (10 μM) were incubated in the presence of HAad or L17E (40 μM each) in α-MEM(−) medium for 1 hour in the same manner as in Example 6. If NLS-EGFP is intracellularly released while maintaining its activity, localization of green fluorescence in the nuclei is observed. […] A high activity of HAad to release endosome-encapsulated substances was also confirmed in this system.

[9] = HeLa, 40 μM, 1 hour in α-MEM(−), Lipofectamine LTX/pCI complex overnight in α-MEM(+)

Molecule: N#CC(C#N)=NNc1ccc(OC(F)(F)F)cc1 [FCCP, carbonyl cyanide-p-trifluoromethoxyphenylhydrazone, reference compound]
- effect on mitochondrial membrane (cells emitting red JC-1 fluorescence), in words [1]: changed to emit green fluorescence

Molecule: H-IWLTALKFLGKAAAKAEAKQELSKL-NH2 [HA/E2, IWLTALX^5FLGX^6AAAX^7AEAX^8QELSX^9L-amide]
- cells in which intracellular release of human immunoglobulin was observed (HeLa cells [2]; peptide 40 μM, IgG 500 μg/mL): ~45%
- proportion of GFP-expressing cells [3]: 36%
- increase of genetic recombination as compared with no peptide administration [3]: 27%
- cells in which intracellular release of dextran was observed (NIH3T3 cells): ~25%
- effect on mitochondrial membrane (cells emitting red JC-1 fluorescence), in words [1, 9]: no significant difference from the untreated case
- endosome-encapsulated substance (Alexa 488-dextran) releasing activity, in words (HeLa cells [4]; peptide 40 μM, Alexa 488-dextran 200 μg/mL, 1 hr, compared with L17E): higher endosomal content release activity than L17E; also recorded: Significant outflow; also recorded: equivalent to that of HA/E1; also recorded: significantly higher endosome-encapsulated substance releasing activity than L17E
- helicity in the presence of an acidic lipid membrane [5]: high helicity
- viability at 24 h [6]: ~100%
- toxicity, in words (cells): no significant toxicity

Molecule: H-IWLTALZFLGZAAAZAXAZQXLSZL-amide (H-IWLTAL[hArg]FLG[hArg]AAA[hArg]A[Aad]A[hArg]Q[Aad]LS[hArg]L-NH2; SMILES CC[C@H](C)[C@H](N)C(=O)N[C@@H](Cc1c[nH]c2ccccc12)C(=O)N[C@@H](CC(C)C)C(=O)N[C@H](C(=O)N[C@@H](C)C(=O)N[C@@H](CC(C)C)C(=O)N[C@@H](CCCCNC(=N)N)C(=O)N[C@@H](Cc1ccccc1)C(=O)N[C@@H](CC(C)C)C(=O)NCC(=O)N[C@@H](CCCCNC(=N)N)C(=O)N[C@@H](C)C(=O)N[C@@H](C)C(=O)N[C@@H](C)C(=O)N[C@@H](CCCCNC(=N)N)C(=O)N[C@@H](C)C(=O)N[C@@H](CCCC(=O)O)C(=O)N[C@@H](C)C(=O)N[C@@H](CCCCNC(=N)N)C(=O)N[C@@H](CCC(N)=O)C(=O)N[C@@H](CCCC(=O)O)C(=O)N[C@@H](CC(C)C)C(=O)N[C@@H](CO)C(=O)N[C@@H](CCCCNC(=N)N)C(=O)N[C@@H](CC(C)C)C(N)=O)[C@@H](C)O; listed as Lycosa carolinensis) [HAad-homoR]
- cells in which release of Alexa 488-dextran into the cytoplasm was observed (HeLa cells [4]; peptide 20 μM, Alexa 488-dextran (10 kDa) 200 μg/mL, 1 hour in α-MEM(−)): 75%

Molecule: IWLTALKFLGKHAAKHEAKQQLSKL-NH2 [L17E, IWLTALX^5FLGX^6HAAX^7HEAX^8QQLSX^9L-amide, reference compound]
- peptide concentration required to detect the signal of intracellularly released human immunoglobulin in 35% of the cells (HeLa cells [2]; IgG 500 μg/mL, 1 hour): 40 µM
- cells in which intracellular release of human immunoglobulin was observed (HeLa cells [2]; peptide 20 μM, IgG 500 μg/mL): about 15%
- cells in which intracellular release of human immunoglobulin was observed (HeLa cells [2]; peptide 40 μM, IgG 50 μg/mL): about 10%
- cells in which intracellular release of human immunoglobulin was observed (HeLa cells [2]; peptide 40 μM, IgG 500 μg/mL): ~35%
- proportion of GFP-expressing cells [3]: 30%
- increase of genetic recombination as compared with no peptide administration [3]: 22%
- EC50 (HeLa cells [7]): 40 µM
- cells in which intracellular release of dextran was observed (NIH3T3 cells): ~17%
- effect on mitochondrial membrane (cells emitting red JC-1 fluorescence), in words [1, 9]: decreased slightly
- cells in which localization of NLS-EGFP in the nuclei was observed (HeLa cells [8]): ~56%
- cells in which Alexa 488-dextran release into the cytosol was observed (HeLa cells [4]; peptide 40 μM, Alexa 488-dextran (10 kDa) 200 μg/mL, 1 hour in α-MEM(−)): about 50%
- viability at 24 h [6]: ~100%
- toxicity, in words (cells): no significant toxicity
